Source: paper PMC9102668, “Highly Cytotoxic Osmium(II) Compounds and Their Ruthenium(II) Analogues Targeting Ovarian Carcinoma Cell Lines and Evading Cisplatin Resistance Mechanisms” (International Journal of Molecular Sciences, 2022)

Legend:
[1] = tested on: A2780 and SKOV3 cells and the resistant subcultures; assay: Cell cycle distribution, PI staining and FACS; type: cell-based; details: 48 h treatment, 24 h recovery
Experimental: The reduced viability under treatment, as measured by the MTT assay, can be a result of cell cycle arrest and/or increased cell death. To further evaluate the anticancer properties of the ruthenium(II) complexes we measured cell cycle distribution and cell death rates after treatment with Ru3 or Ru14. After seeding and attaching, the cells were treated for 48 h with different concentrations of substances. For cell cycle distribution measurements, a recovery phase of 24 h was added after treatment, and cells were fixed and stained with PI for the DNA content. Arresting of cells in specific cell cycle phases gives them time to resolve the DNA damage (G1 arrest) or is an initial step to apoptosis if DNA damage is too severe (G2/M arrest).
(§1) To examine cell cycle distribution and cell death rates, 30,000 cells were seeded in 12 well plates. After attaching for 24 h cells were treated with Cisplatin, Ru3 and Ru14 for 48 h at various concentrations for cell cycle and cell death analyses. For cell death analysis, immediately after treatment cells were stained with Propidium Iodid (PI) (1 µg/mL) on ice and the number of dead cells was measured using BD Canto II. For cell cycle distribution, cells recovered for 24 h after treatment. Afterwards, cells were fixed in ice-cold, 50% EtOH for 24 h at −20 °C. For DNA staining, fixed cells were incubated in PBS with 0.05% Triton-X, 0.1 µg/mL RNaseA and 50 µg/mL PI for 1 h at 4 °C in dark. DNA content was measured using BD Canto II.

[2] = tested on: Cisplatin resistant cell lines; assay: Mean IC50 (MTT assay) on Cisplatin resistant cell lines; type: cell-based
Experimental: Thus, it can be concluded that the biological activity is mediated by a longer chain (butoxy) at the meta-position, whereas the ortho- and para-positions are more suitable with a shorter chain (ethoxy). To have a further look at the influence of the different ligand systems and substitution patterns, all β-Hydroxydithiocinnamic acid alkyl esters were tested under same conditions as their derived ruthenium(II) complexes (Figure 5B, Supplementary Table S3). […] All ligands are less cytotoxic than Cisplatin itself and therefore the metal(II) center is necessary for the high cytotoxic activity, what is in clear contrast to the literature for O,S-chelating ruthenium(II) or osmium(II) compounds with thiomaltol ligand [48, 71] but confirmed for Ru(II)/Os(II) compounds with N,N-bidentate glycosyl heterocyclic ligands. This is exemplarily shown by the comparison of mean IC50 values for Cisplatin, L14, and Ru14 (Supplementary Figure S8).
(§2) Ovarian cancer cell lines were cultured under standard conditions (5% CO2, 37 °C, 90% humidity) in RPMI medium supplemented with 10% FCS, 100 U/mL penicillin and 100 µg/mL streptomycin (Life Technologies, Dreieich, Germany). Cisplatin (Sigma, Taufkirchen, Germany) was freshly dissolved at 1 mg/mL in 0.9% NaCl solution and diluted appropriately. New ruthenium(II) complexes and ligands were dissolved in dmso. Platinum-resistant A2780 and SKOV3 cells were established by repeated rounds of 3-day incubations with increasing amounts of Cisplatin starting with 0.1 µM. The concentration was doubled after 3 incubations, interrupted by recovery phases with normal medium. […] Determinations of IC50 values were carried out using the CellTiter96 non-radioactive proliferation assay (MTT assay, Promega, Mannheim, Germany). After seeding 5000 cells per well in a 96-well plate, cells were allowed to attach for 24 h and were incubated for 48 h with different concentrations of the substances ranging from 0 to 500 µM for Ruthenium and 0 to 1000 µM for ligand tests (0, 1, 10, 50, 100, 500, 1000 µm), for Cisplatin from 0 to 100 µM (0.1, 1, 5, 10, 50, 100 µM). Each measurement was done in triplicate and repeated 3 times. The proportion of viable cells was quantified by the MTT assay and after background subtraction relative values compared to the mean of medium controls were calculated. Non-linear regression analyses applying the Hill slope were run in GraphPad 5.0 software.

histone γH2AX-foci = assay: γH2AX foci analysis (DNA damage); type: cell-based; details: IC50 concentration, 24h incubation
Excerpt: ROS production may also lead to endoplasmatic reticulum stress-induced apoptosis. In general, many ruthenium(II) complexes with different ligands induce intracellular ROS [94, 95, 96, 97, 98, 99]. Moreover, the cytotoxic activity of Os(II) compounds can be inhibited by vitamin E co-treatment pointing to the contribution of ROS [88]. In addition to mitochondrial dysfunction, Ru(II) complexes may affect glycolysis or topoisomerase I/II, thus inducing necroptosis. Ru(II) compounds with modified pyrithione ligands were recently described to overcome platinum resistance in ovarian cancer cells by inducing cytostatic G1 arrest, TrxR inhibition, and cell membrane damage. […] Future studies may identify the specific target proteins enabling molecular docking studies and specific refinement of the organo-metal compound structure. Altogether, presented compounds may use some of these alternative modes of action as well, as we see efficient cell death but no cell cycle arrest induction by Ru3/Ru14. Furthermore, the ruthenium(II) core atom might be responsible for this effect because of the lack of anticancer behaviour of the ligand L14 (Supplementary Figure S8). To further confirm that Ru compounds use another mechanism of action, DNA damage analyses were conducted for Ru3 and Ru14 (Figure 8). […]

SKOV3cis = assay: MTT assay (CellTiter96), cytotoxic activity; type: cell-based; details: for IC50: Cisplatin resistant SKOV3, MTT assay, 48 h incubation; for RF SKOV3 (resistance factor): SKOV3cis vs SKOV3
Experimental: (§3) The biological behaviour of all substances was characterized by their cytotoxic activity against a panel of cell lines enabling an understanding of the structure-activity relationship. Cytotoxic activity was determined on ovarian carcinoma cell lines SKOV3 and A2780 as well as their Cisplatin resistant analogues (SKOV3cis and A2780cis) and the lung carcinoma cell line A549. Due to a low solubility in water, dmso is used as a solvent for the preparation of a dilution series in cell culture experiments. The toxic influence of dmso was determined earlier and experiments were carried out with 0.5% dmso in cell culture media and this concentration was used as reference sample in each MTT assay (details: Section 3). […] Resistance factors (RF) were determined for all substances (for IC50 values and RF of β-Hydroxydithiocinnamic acid esters L1–L18, see Tables S2 and S3, Supplementary part). All investigated ruthenium(II) compounds show lower RF values than Cisplatin on ovarian carcinoma cell lines, ranging from 0.2 to 1.5 (Table 3). Whereas the IC50 values on the non-resistant cell lines are in most cases higher than the IC50 of the reference substance, no increase of IC50 values is observed for the resistant cell lines. Contrary, eight ruthenium complexes show lower IC50 values on SKOV3cis than Cisplatin and four compounds on A2780cis. Thus, it can be concluded that these compounds are able to bypass the Cisplatin resistance mechanism in these cell lines pointing to a different mechanism of action.
as §2

A549 = assay: MTT assay (CellTiter96), cytotoxic activity; type: cell-based; details: lung carcinoma cell line, 48 h incubation
Experimental: as §3, §2

A2780 = assay: MTT assay (CellTiter96), cytotoxic activity; type: cell-based; details: 48 h incubation
Experimental: as §3, §2

SKOV3 = assay: MTT assay (CellTiter96), cytotoxic activity; type: cell-based; details: 48 h incubation
Experimental: as §3, §2

A2780cis = assay: MTT assay (CellTiter96), cytotoxic activity; type: cell-based; details: for RF A2780 (resistance factor): A2780cis vs A2780; for IC50: Cisplatin resistant A2780, MTT assay, 48 h incubation
Experimental: as §3, §2

A2780 cells = assay: Cell death rate, PI staining of live cells (FACS); type: cell-based; details: 48 h
Experimental: (§4) For cell death rate analysis, live cells were stained with PI immediately after 48 h treatment. […] Furthermore, resistant cells show much lower Cisplatin-induced cell death rates (Figure 7). […] In A2780 cells, both compounds trigger similar cell death rates in parental and Cisplatin-resistant cells. Cisplatin-resistant SKOV3 are much more sensitive to both ruthenium(II) complexes than the parental counterpart, with a median of 3.3-fold higher sensitivity.
as §1

[3] = Stability determination via 1H NMR spectroscopy; type: physicochemical
Experimental: To investigate the behaviour of the ruthenium(II) complexes Ru1, Ru3, and Ru8 in solution, we analysed kinetic measurements via ^1H NMR spectroscopy (every 1 h, one spectra). NMR signals and behaviour of the ruthenium and osmium compounds is similar, but osmium(II) compounds show a slower ligand exchange mechanism and a higher stability in general. […] The same measurements were done also with dmso at room temperature. Similar changes in the spectra occur at room temperature and new species are detectable (exemplified for Ru1 in the Supplementary Figure S3). However, slower speciation processes in comparison to 37 °C measurements occur, which is exemplarily represented by the disappearance of the double-doublets of the cymene ligand after 29 h (rt, Supplementary Figure S3) vs. 5 h (37 °C, Supplementary Figure S2). As reported earlier, dmso molecules are able to bind to the ruthenium(II) center by losing the cymene ligand and changing the structure to an octahedral metal(II) coordination sphere. Thus, an explanation for the new species can be the binding of dmso molecules to the ruthenium(II) center after loss of the cymene ligand representing the new species in the ^1H NMR spectra. To support this hypothesis, the ruthenium(II) complexes were measured under same conditions (rt, 72 h) in CD2Cl2, and it was shown that the compounds are stable under these conditions in the other solvent (see Supplementary Figure S4).
NMR spectra were measured via NMR spectroscopy on Bruker Avance 400 MHz. Substances were solved in dmso-d6 or CD2Cl2 and measured directly at 37 °C or room temperature for 72 h. NS = 128 scans, t = 709 s/2891 s break, 72 measurements.

Fibroblasts = assay: IC50 on non-cancerous cell cultures; type: cell-based; details: normal primary short-term cell culture
MCF10A = assay: IC50 on non-cancerous cell cultures; type: cell-based; details: non-cancerous breast epithelial cell line
Keratinocytes = assay: IC50 on non-cancerous cell cultures; type: cell-based; details: normal primary short-term cell culture
SKOV3 cells = assay: Cell death rate, PI staining of live cells (FACS); type: cell-based; details: parental SKOV3, 15 µM, 48 h
Experimental: as §4, §1

| Compound | IC50 (SKOV3cis) [µM] | RF SKOV3 (resistance factor) (SKOV3cis) | IC50 (A549) [µM] | IC50 (A2780) [µM] | IC50 (SKOV3) [µM] | RF A2780 (resistance factor) (A2780cis) | IC50 (A2780cis) [µM] | IC50 (Fibroblasts) [µM] | IC50 (MCF10A) [µM] | IC50 (Keratinocytes) [µM] | also measured |
| --- | --- | --- | --- | --- | --- | --- | --- | --- | --- | --- | --- |
| CSC(=S)C=C([O][Ru][Cl])c1cccc(O)c1.Cc1ccc(C(C)C)cc1 [Ru3, [(η^6-p-cymene)Ru(1-(3-hydroxyphenyl)-3-(methylthio)-3-thioxo-prop-1-en-1-olate-O,S)Cl]] | 12.1 | 0.6 | 8 | 8.7 | 18.9 | 0.9 | 7.4 | – | – | – | effect on cell cycle distribution [1]: no or only a minor effect on cell cycle distribution; mean IC50 value on Cisplatin resistant cell lines compared with Cisplatin [2]: lower; γH2AX-foci induction (histone γH2AX-foci): less γH2AX-foci as Cisplatin; capacity to induce cell death in vitro (A2780 cells; A2780 and SKOV3 cells, 20 µM and 30 µM): high capacity to induce cell death |
| [(n^6-p-cymene)Ru(1-phenyl-3-(methylthio)-3-thioxo-prop-1-en-1-olate-O,S)Cl] [Ru1] | 18.4 | 0.5 | 28.8 | 12.8 | 34.7 | 0.75 | 9.6 | – | – | – | disappearance of the double-doublets of the cymene ligand ([3]; dmso, rt): 29 h; disappearance of the double-doublets of the cymene ligand ([3]; dmso-d6, 37 °C): 5 h; loss of the methine proton signal ([3]; dmso-d6, 37 °C): 7 h |
| [(η^6-p-cymene)Os(1-(3-hydroxyphenyl)-3-(ethylthio)-3-thioxo-prop-1-en-1-olate-O,S)Cl] [Os3] | 2.3 | 2.1 | 0.7 | 0.4 | 1.1 | 1 | 0.4 | > 100 | 21.3 | 84.5 | stability determination using NMR spectroscopy ([3]; osmium(II) compounds): no structural changes |
| cis-[Pt(NH3)2Cl2] [Cisplatin] | 13.5 | 3.6 | 7.6 | 1.3 | 3.8 | 4.7 | 6.1 | 4.1 | 3.3 | 5.7 | effect on cell cycle distribution ([1]; 5 µM, parental A2780 and SKOV3 cells): cell cycle arrest in G2/M phase; cell death compared to untreated cells (SKOV3 cells): 6.3 fold; cell death compared to untreated cells (A2780 cells; parental A2780, 15 µM, PI staining): 29.9 fold |
